Experimental data as given in paper PMC5688156, “The natural product carolacton inhibits folate-dependent C1 metabolism by targeting FolD/MTHFD” (Nature Communications, 2017).
Where two headings read alike, the source gives them in different places.

Target: T1, hsMTHFD1_DC (Homo sapiens, UniProt P11586)
T1 construct: hsMTHFD1 DC301; His-tag (TEV-cleavable, vector pHis-TEV); made in house; host or cells: E. coli BL21 (DE3)
T1 sequence (P11586 2-291 limits assumed): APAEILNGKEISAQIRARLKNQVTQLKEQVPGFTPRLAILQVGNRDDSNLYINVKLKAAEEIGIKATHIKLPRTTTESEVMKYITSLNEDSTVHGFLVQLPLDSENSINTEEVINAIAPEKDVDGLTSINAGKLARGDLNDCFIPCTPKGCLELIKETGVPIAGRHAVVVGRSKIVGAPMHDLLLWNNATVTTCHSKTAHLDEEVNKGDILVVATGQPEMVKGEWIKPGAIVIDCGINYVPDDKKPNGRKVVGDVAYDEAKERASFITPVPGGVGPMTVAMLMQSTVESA
Assay: hsMTHFD1_DC dehydrogenase (DH) enzyme assay
Assay type: biochemical
Settings: hsMTHFD1 DC301
Description: (6R,S)-5,10-Methylene-5,6,7,8-tetrahydrofolic acid ((6R,S)-5,10-CH2-THF) calcium salt and (6R,S)-5,10-Methenyl-5,6,7,8-tetrahydrofolic acid ((6R,S)-5,10-CH=THF) chloride were purchased from Schircks Laboratories (Bauma, Switzerland) and used as substrates for FolD dehydrogenase and cyclohydrolase enzyme assays, respectively. Only the R-isomer, which accounts for 50% of (6R,S)-5,10-CH2-THF and (6R,S)-5,10-CH=THF, respectively, is used by the enzyme. (6R,S)-5,10-CH2-THF was dissolved in N2-spargeled basic buffer (50 mM Tris-HCl (pH 8.0), 100 mM β-mercaptoethanol) as described by Varshney et al.[25]. (6R,S)-5,10-CH=THF was dissolved in DMSO as a 100 mM stock solution.
Because FolD is a bifunctional enzyme, dehydrogenase and cyclohydrolase activities were determined for FolD enzyme kinetics, respectively. The dehydrogenase activity of FolD was assayed for its substrate 5,10-CH2-THF and cofactor NADP^+ (in the case of MTHFD2, NAD^+ was used as the cofactor) based on monitoring the formation of 5,10-CH=THF, while the cyclohydrolase activity of FolD was determined for its substrate 5,10-CH=THF by monitoring the hydrolysis of […]. The enzyme kinetics for the dehydrogenase activity of all FolDs except hsMTHFD1_DC were determined at 30 °C in 50 mM Tris-HCl (pH 7.5), 30 mM β-mercaptoethanol. The hsMTHFD1_DC dehydrogenase activity was measured in 25 mM MOPS (pH 7.3), 30 mM β-mercaptoethanol at 30 °C. To measure the enzyme kinetic constants for 5,10-CH2-THF, for example in the case of ecFolD, the NADP concentration was fixed at 1 mM and the concentration of 5,10-CH2-THF varied from 5 to 1500 μM (R-isomer). Similarly, to measure the kinetic constants of ecFolD for NADP^+, the concentration of 5,10-CH2-THF (R-isomer) was fixed at 1 mM and the concentration of NADP^+ varied from 10 to 1500 μM. For different FolDs, the varied concentration range of substrates could be different. […] To monitor the formation of 5,10-CH=THF, the absorbance of the reaction mixture was monitored at 350 nm in micro UV cuvettes (BRAND, Essex, Connecticut, USA). The concentration of 5,10-CH=THF produced in the reaction was determined using an extinction co-efficient of 0.0249 μM^−1 cm^−1. […] The consumption of 5,10-CH=THF was measured by recording the absorbance of the reactions at 355 nm using the TECAN Infinite 200 PRO equipped with a monochromator. […] The inhibition constants (K i) of carolacton on FolD were determined by measuring the apparent K m when adding certain amounts of carolacton to the enzyme reactions. […] To compare the inhibition effects of carolacton between the different FolDs, the half maximal inhibitory concentration (IC50) of carolacton on the same amount of enzyme was determined for FolDs involved in this study. […]

CO[C@H](CC(=O)O)[C@@H](C)C(=O)[C@H](C)/C=C(\C)[C@H]1OC(=O)[C@H](O)[C@H](O)/C=C/[C@H](C)CCC[C@@H]1C [carolacton] was tested, and the IC50 (10 nM enzyme, read-out: IC50, carolacton inhibition on DH activity) was 38 nM, the IC80 (10 nM enzyme, read-out: IC80, carolacton inhibition on DH activity) was 77.6 nM and the Ki (vs 5,10-CH2-THF, read-out: Ki (5,10-CH2-THF), carolacton inhibition on DH activity) was 5.93 nM. For the same compound, the Ki (vs NADP+, read-out: Ki (NADP+), carolacton inhibition on DH activity) was 58.7 nM.
